Measured values reported in ChEMBL document CHEMBL1148514, “Development of lipopeptides for inhibiting 20S proteasomes” (Bioorg Med Chem Lett, 2006).
Residues, ends and D or L forms follow the SMILES beside them.

Assays:
Proteasome component C5 = target: T1, Proteasome component C5 (Saccharomyces cerevisiae S288c, UniProt P23724); assay: Inhibition of post acid activity of yeast 20S proteasome
T1 sequence (P23724 whole entry): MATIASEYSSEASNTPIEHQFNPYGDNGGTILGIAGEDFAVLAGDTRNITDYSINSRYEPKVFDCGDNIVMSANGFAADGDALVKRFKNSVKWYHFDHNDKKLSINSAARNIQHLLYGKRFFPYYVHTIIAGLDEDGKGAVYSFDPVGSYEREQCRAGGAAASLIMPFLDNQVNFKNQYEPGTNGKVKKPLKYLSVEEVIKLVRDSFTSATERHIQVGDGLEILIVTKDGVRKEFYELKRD

[1] = target: T2, Proteasome Macropain subunit PRE2 (Saccharomyces cerevisiae S288c, UniProt P30656); assay: Inhibition of chymotrypsin like activity of yeast 20S proteasome
T2 sequence (P30656 whole entry): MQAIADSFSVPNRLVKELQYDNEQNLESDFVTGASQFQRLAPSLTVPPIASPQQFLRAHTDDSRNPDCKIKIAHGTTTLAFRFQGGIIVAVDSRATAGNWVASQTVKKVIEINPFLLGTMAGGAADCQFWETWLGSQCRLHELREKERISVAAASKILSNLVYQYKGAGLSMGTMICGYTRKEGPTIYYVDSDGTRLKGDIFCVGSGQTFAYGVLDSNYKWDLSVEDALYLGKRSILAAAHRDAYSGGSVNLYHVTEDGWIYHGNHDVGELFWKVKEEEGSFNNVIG

[2] = target: T3, Proteasome Macropain subunit (Saccharomyces cerevisiae S288c) (UniProt P22141); assay: Inhibition of trypsin like activity of yeast 20S proteasome at 625 uM
T3 sequence (whole entry): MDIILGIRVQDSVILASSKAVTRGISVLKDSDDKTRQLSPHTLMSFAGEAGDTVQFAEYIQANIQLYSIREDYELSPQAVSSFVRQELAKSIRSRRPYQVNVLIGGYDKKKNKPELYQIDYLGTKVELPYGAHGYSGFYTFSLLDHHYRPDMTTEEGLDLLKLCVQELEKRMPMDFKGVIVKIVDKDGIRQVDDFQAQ

[3] = target: T4, Proteasome Macropain subunit (Saccharomyces cerevisiae S288c, UniProt P22141); assay: Inhibition of trypsin like activity of yeast 20S proteasome
T4 sequence (P22141 whole entry): T3 sequence (whole entry)

[4] = target: T5, Proteasome component C5 (Saccharomyces cerevisiae S288c) (UniProt P23724); assay: Inhibition of post acid activity of yeast 20S proteasome at 80 uM
T5 sequence (whole entry): T1 sequence (P23724 whole entry)

[5] = target: T3, Proteasome Macropain subunit (Saccharomyces cerevisiae S288c); assay: Inhibition of trypsin like activity of yeast 20S proteasome at 80 uM
[6] = target: T6, Proteasome Macropain subunit PRE2 (Saccharomyces cerevisiae S288c) (UniProt P30656); assay: Inhibition of chymotrypsin like activity of yeast 20S proteasome at 80 uM
T6 sequence (whole entry): T2 sequence (P30656 whole entry)

[7] = target: T5, Proteasome component C5 (Saccharomyces cerevisiae S288c); assay: Activation of post acid activity of yeast 20S proteasome

H-TITFDY-OH
Ki (Proteasome component C5): > 625 µM | Ki [1]: > 625 µM | inhibition [2]: < 10%

CCCCCCCCCCCCCCCC(=O)N[C@@H](Cc1ccc(O)cc1)C(=O)N[C@@H](CC(=O)O)C(=O)N[C@@H](CC(C)C)C(=O)O (HELM PEPTIDE1{[CCCCCCCCCCCCCCCC(=O)[*:2]].Y.D.L}$$$$V2.0)
Ki (Proteasome component C5): 15 µM | Ki [1]: 20 µM | Ki [3]: > 80 µM

CCCCCCCCCCCCCCCC(=O)N[C@@H](Cc1ccc(O)cc1)C(=O)N[C@@H](CCC(=O)O)C(=O)N[C@H](C(=O)O)[C@@H](C)O (HELM PEPTIDE1{[CCCCCCCCCCCCCCCC(=O)[*:2]].Y.E.T}$$$$V2.0)
Ki (Proteasome component C5): 21 µM | Ki [1]: 20 µM

H-TVTYKY-OH
Ki (Proteasome component C5): > 625 µM | Ki [1]: > 625 µM | inhibition [2]: < 10%

CC(C)C[C@H](NC(=O)[C@H](CCC(=O)O)NC(=O)[C@@H](N)Cc1ccc(O)cc1)C(=O)O (H-Tyr-Glu-Leu-OH)
inhibition [4]: < 10% | inhibition [5]: < 10% | inhibition [6]: < 10%

CCCCCCCCCC(=O)N[C@H](C(=O)N[C@H](C(=O)N[C@H](C(=O)N[C@@H](Cc1ccccc1)C(=O)N[C@@H](CCCCN)C(=O)N[C@@H](Cc1ccccc1)C(=O)O)[C@@H](C)O)C(C)C)[C@@H](C)O (HELM PEPTIDE1{[CCCCCCCCCC(=O)[*:2]].T.V.T.F.K.F}$$$$V2.0)
Ki [1]: 28 µM

CCCCCCCC(=O)N[C@H](C(=O)N[C@H](C(=O)N[C@H](C(=O)N[C@@H](Cc1ccccc1)C(=O)N[C@@H](CC(=O)O)C(=O)N[C@@H](Cc1ccc(O)cc1)C(=O)O)[C@@H](C)O)[C@@H](C)CC)[C@@H](C)O (HELM PEPTIDE1{[CCCCCCCC(=O)[*:2]].T.I.T.F.D.Y}$$$$V2.0)
Ki (Proteasome component C5): > 80 µM | Ki [1]: 43 µM | inhibition [5]: < 10%

H-TITYDL-OH
Ki (Proteasome component C5): > 625 µM | Ki [1]: 619 µM | inhibition [2]: < 10%

CCCCCCCCCCCCCCCC(=O)N[C@H](C(=O)N[C@H](C(=O)N[C@H](C(=O)N[C@@H](Cc1ccccc1)C(=O)N[C@@H](CC(=O)O)C(=O)N[C@@H](Cc1ccc(O)cc1)C(=O)O)[C@@H](C)O)[C@@H](C)CC)[C@@H](C)O (HELM PEPTIDE1{[CCCCCCCCCCCCCCCC(=O)[*:2]].T.I.T.F.D.Y}$$$$V2.0)
Ki [1]: 80 µM | inhibition [5]: < 10% | Activity [7]: 1.5

CCCCCCCCCCCC(=O)N[C@@H](Cc1ccc(O)cc1)C(=O)N[C@@H](CCC(=O)O)C(=O)N[C@@H](CC(C)C)C(=O)O (HELM PEPTIDE1{[CCCCCCCCCCCC(=O)[*:2]].Y.E.L}$$$$V2.0)
Ki (Proteasome component C5): 62 µM | inhibition [6]: < 10% | Ki [3]: > 80 µM

CCCCCC(=O)N[C@H](C(=O)N[C@H](C(=O)N[C@H](C(=O)N[C@@H](Cc1ccc(O)cc1)C(=O)N[C@@H](CCCCN)C(=O)N[C@@H](Cc1ccccc1)C(=O)O)[C@@H](C)O)C(C)C)[C@@H](C)O (HELM PEPTIDE1{[CCCCCC(=O)[*:2]].T.V.T.Y.K.F}$$$$V2.0)
inhibition [4]: < 10% | Ki [1]: 80 µM | Ki [3]: 315 µM

CCCCCC(=O)N[C@H](C(=O)N[C@H](C(=O)N[C@H](C(=O)N[C@@H](Cc1ccccc1)C(=O)N[C@@H](CCCCN)C(=O)N[C@@H](Cc1ccccc1)C(=O)O)[C@@H](C)O)C(C)C)[C@@H](C)O (HELM PEPTIDE1{[CCCCCC(=O)[*:2]].T.V.T.F.K.F}$$$$V2.0)
inhibition [4]: < 10% | Ki [1]: 43 µM | inhibition [5]: < 10%

H-TVSYKF-OH
Ki (Proteasome component C5): > 625 µM | Ki [1]: > 625 µM | inhibition [2]: < 10%

CCCCCCCCCCCC(=O)N[C@H](C(=O)N[C@H](C(=O)N[C@H](C(=O)N[C@@H](Cc1ccccc1)C(=O)N[C@@H](CC(=O)O)C(=O)N[C@@H](Cc1ccc(O)cc1)C(=O)O)[C@@H](C)O)[C@@H](C)CC)[C@@H](C)O (HELM PEPTIDE1{[CCCCCCCCCCCC(=O)[*:2]].T.I.T.F.D.Y}$$$$V2.0)
Ki (Proteasome component C5): > 80 µM | Ki [1]: > 80 µM | Ki [3]: > 80 µM

CCCCCCCCCC(=O)N[C@@H](Cc1ccc(O)cc1)C(=O)N[C@@H](CCC(=O)O)C(=O)N[C@@H](CC(C)C)C(=O)O (HELM PEPTIDE1{[CCCCCCCCCC(=O)[*:2]].Y.E.L}$$$$V2.0)
Ki (Proteasome component C5): 72 µM | inhibition [5]: < 10% | inhibition [6]: < 10%

CCCCCC(=O)N[C@@H](Cc1ccc(O)cc1)C(=O)N[C@@H](CCC(=O)O)C(=O)N[C@@H](CC(C)C)C(=O)O (HELM PEPTIDE1{[CCCCCC(=O)[*:2]].Y.E.L}$$$$V2.0)
Ki (Proteasome component C5): 59 µM | Ki [1]: > 80 µM | inhibition [5]: < 10%

CCCCCCCCCCCCCCC(N)C(=O)O (stereo not given)
inhibition [4]: < 10% | inhibition [5]: < 10% | inhibition [6]: < 10%

CCCCCC(=O)N[C@H](C(=O)N[C@H](C(=O)N[C@H](C(=O)N[C@@H](Cc1ccccc1)C(=O)N[C@@H](CC(=O)O)C(=O)N[C@@H](Cc1ccc(O)cc1)C(=O)O)[C@@H](C)O)[C@@H](C)CC)[C@@H](C)O (HELM PEPTIDE1{[CCCCCC(=O)[*:2]].T.I.T.F.D.Y}$$$$V2.0)
inhibition [4]: < 10% | Ki [1]: 34 µM | inhibition [5]: < 10%

CCCCCCCCCCCCCC(=O)N[C@H](C(=O)N[C@H](C(=O)N[C@H](C(=O)N[C@@H](Cc1ccc(O)cc1)C(=O)N[C@@H](CCCCN)C(=O)N[C@@H](Cc1ccccc1)C(=O)O)[C@@H](C)O)C(C)C)[C@@H](C)O (HELM PEPTIDE1{[CCCCCCCCCCCCCC(=O)[*:2]].T.V.T.Y.K.F}$$$$V2.0)
Activity [7]: 1.2 | Ki [3]: 80 µM

CCCCCCCCCCCCCCCC(=O)N[C@@H](Cc1ccc(O)cc1)C(=O)N[C@@H](CCCCN)C(=O)N[C@@H](Cc1ccccc1)C(=O)O (HELM PEPTIDE1{[CCCCCCCCCCCCCCCC(=O)[*:2]].Y.K.F}$$$$V2.0)
inhibition [4]: < 10% | Ki [1]: 81 µM | Ki [3]: > 80 µM

N[C@@H](Cc1ccc(O)cc1)C(=O)N[C@@H](CCC(=O)O)C(=O)N[C@@H](CC(=O)O)C(=O)O (H-Tyr-Glu-Asp-OH)
inhibition [4]: < 10% | inhibition [5]: < 10% | inhibition [6]: < 10%

CCCCCCCCCCCCCCC(N)C(=O)N[C@@H](Cc1ccc(O)cc1)C(=O)N[C@@H](CCC(=O)O)C(=O)N[C@H](C(=O)O)[C@@H](C)O (stereo not given in full) (HELM PEPTIDE1{[CCCCCCCCCCCCCCC(N)C(=O)[*:2]].Y.E.T}$$$$V2.0)
Ki (Proteasome component C5): 8 µM | Ki [1]: 5 µM

CCCCCCCCCCCCCCCC(=O)N[C@@H](Cc1ccc(O)cc1)C(=O)N[C@@H](CC(N)=O)C(=O)N[C@H](C(=O)O)[C@@H](C)O (HELM PEPTIDE1{[CCCCCCCCCCCCCCCC(=O)[*:2]].Y.N.T}$$$$V2.0)
Ki [1]: 30 µM

CCCCCCCCCCCCCCCC(=O)OC
inhibition [4]: < 10% | inhibition [5]: < 10% | inhibition [6]: < 10%

CCCCCCCCCC(=O)N[C@H](C(=O)N[C@H](C(=O)N[C@H](C(=O)N[C@@H](Cc1ccc(O)cc1)C(=O)N[C@@H](CCCCN)C(=O)N[C@@H](Cc1ccccc1)C(=O)O)[C@@H](C)O)C(C)C)[C@@H](C)O (HELM PEPTIDE1{[CCCCCCCCCC(=O)[*:2]].T.V.T.Y.K.F}$$$$V2.0)
Ki [1]: 72 µM | inhibition [5]: < 10% | Activity [7]: 1.2

CCCCCCCCCCCCCCCC(=O)N[C@@H](Cc1ccccc1)C(=O)N[C@@H](CCCCN)C(=O)N[C@@H](Cc1ccccc1)C(=O)O (HELM PEPTIDE1{[CCCCCCCCCCCCCCCC(=O)[*:2]].F.K.F}$$$$V2.0)
inhibition [4]: < 10% | Ki [1]: 30 µM | Ki [3]: > 80 µM

H-TVTFKF-OH
Ki (Proteasome component C5): 148 µM | Ki [1]: 139 µM | inhibition [2]: < 10%

H-TISYDY-OH
Ki (Proteasome component C5): > 625 µM | Ki [1]: > 625 µM | inhibition [2]: < 10%

CCCCCCCC(=O)N[C@H](C(=O)N[C@H](C(=O)N[C@H](C(=O)N[C@@H](Cc1ccccc1)C(=O)N[C@@H](CCCCN)C(=O)N[C@@H](Cc1ccccc1)C(=O)O)[C@@H](C)O)C(C)C)[C@@H](C)O (HELM PEPTIDE1{[CCCCCCCC(=O)[*:2]].T.V.T.F.K.F}$$$$V2.0)
Ki [1]: > 80 µM

CCCCCCCCCCCCCCCC(=O)N[C@@H](Cc1ccc(O)cc1)C(=O)N[C@@H](CCC(=O)O)C(=O)N[C@@H](CC(C)C)C(=O)O (HELM PEPTIDE1{[CCCCCCCCCCCCCCCC(=O)[*:2]].Y.E.L}$$$$V2.0)
Ki (Proteasome component C5): 15 µM | Ki [1]: 18 µM | Ki [3]: > 80 µM

CCCCCCCCCCCC(=O)N[C@H](C(=O)N[C@H](C(=O)N[C@H](C(=O)N[C@@H](Cc1ccc(O)cc1)C(=O)N[C@@H](CCCCN)C(=O)N[C@@H](Cc1ccccc1)C(=O)O)[C@@H](C)O)C(C)C)[C@@H](C)O (HELM PEPTIDE1{[CCCCCCCCCCCC(=O)[*:2]].T.V.T.Y.K.F}$$$$V2.0)
Ki [1]: > 80 µM | Activity [7]: 1.2 | Ki [3]: 68 µM

CCCCCCCCCC(=O)N[C@H](C(=O)N[C@H](C(=O)N[C@H](C(=O)N[C@@H](Cc1ccccc1)C(=O)N[C@@H](CC(=O)O)C(=O)N[C@@H](Cc1ccc(O)cc1)C(=O)O)[C@@H](C)O)[C@@H](C)CC)[C@@H](C)O (HELM PEPTIDE1{[CCCCCCCCCC(=O)[*:2]].T.I.T.F.D.Y}$$$$V2.0)
Ki [1]: 37 µM
